Literature values, collected in patent US20070213409A1, “USE OF PREPARATIONS FOR SKIN ENZYME PROTECTION” (BEIERSDORF AG, priority 2005, published 2007).
Where a name gives a salt, the structure may show the parent alone.

Tests used:
[1] = test system: stratum corneum tryptic enzyme (SCTE); conditions: competitive inhibition; associated with reduced desquamation
[2] = test system: stratum corneum chymotryptic enzyme (SCCE); conditions: competitive inhibition; associated with reduced desquamation
[3] = test system: desquamation (SCCE and SCTE serine proteases)

Row | Compound | effect on activity of SCTE [1] | effect on activity of SCCE [2] | skin flakes in vivo after topical application [3]
1 | CC(C)CCC[C@@H](C)[C@H]1CC[C@H]2[C@@H]3CC=C4C[C@@H](OS(=O)(=O)O)CC[C@]4(C)[C@H]3CC[C@]12C [cholesterol-3 sulfate] | reduces | reduces | –
2 | CC(=O)N[C@@H](CC(C)C)C(=O)N[C@@H](CC(C)C)C(=O)N[C@H](C=O)CCCNC(=N)N [leupeptin] | – | – | more skin flakes
3 | aprotinin | – | – | more skin flakes
